Reference: PubChem BioAssay (NCI)
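1) Cells in 96-well plates. 2) Compound, 48 h, 5 concentrations. 3) Linear interpolation between surrounding doses. 4) Unreached endpoint = highest concentration. GI50 is the concentration that inhibits growth by half. TGI: total growth inhibition.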

Legend:
Test in all cases: inhibition of tumour cell growth, NCI panel, 48 h
[1] = test system: 786-0 renal
[2] = test system: A498 renal
[3] = test system: A549 NSCLC
[4] = test system: ACHN renal
[5] = test system: BT-549 breast
[6] = test system: CAKI-1 renal
[7] = test system: CCRF-CEM leukemia
[8] = test system: COLO 205 colon
[9] = test system: DU-145 prostate
[10] = test system: EKVX NSCLC
[11] = test system: HCC-2998 colon
[12] = test system: HCT-116 colon
[13] = test system: HCT-15 colon
[14] = test system: HL-60(TB) leukemia
[15] = test system: HOP-62 NSCLC
[16] = test system: HOP-92 NSCLC
[17] = test system: HS 578T breast
[18] = test system: HT29 colon
[19] = test system: IGROV1 ovarian
[20] = test system: K-562 leukemia
[21] = test system: KM12 colon
[22] = test system: LOX IMVI melanoma
[23] = test system: M14 melanoma
[24] = test system: MALME-3M melanoma
[25] = test system: MCF7 breast
[26] = test system: MDA-MB-231 breast
[27] = test system: MDA-MB-435
[28] = test system: MOLT-4 leukemia
[29] = test system: NCI-H226 lung
[30] = test system: NCI-H23 lung
[31] = test system: NCI-H460 lung
[32] = test system: NCI-H522 lung
[33] = test system: NCI/ADR-RES ovarian
[34] = test system: OVCAR-3 ovarian
[35] = test system: OVCAR-4 ovarian
[36] = test system: OVCAR-5 ovarian
[37] = test system: OVCAR-8 ovarian
[38] = test system: PC-3 prostate
[39] = test system: RPMI-8226 leukemia
[40] = test system: RXF 393 renal
[41] = test system: SF-268 CNS
[42] = test system: SF-295 CNS
[43] = test system: SF-539 CNS
[44] = test system: SK-MEL-2 melanoma
[45] = test system: SK-MEL-28 melanoma
[46] = test system: SK-MEL-5 melanoma
[47] = test system: SK-OV-3 ovarian
[48] = test system: SN12C renal
[49] = test system: SNB-19 CNS
[50] = test system: SNB-75 CNS
[51] = test system: SR leukemia
[52] = test system: SW-620 colon
[53] = test system: T-47D breast
[54] = test system: TK-10 renal
[55] = test system: U251 CNS
[56] = test system: UACC-257 melanoma
[57] = test system: UACC-62 melanoma
[58] = test system: UO-31 renal

With C=C(C)C(=O)O[C@H]1C[C@@]2(C)OC(=CC2=O)/C(C)=C\[C@H]2OC(=O)C(=C)[C@H]12 the GI50 [1] was 0.66 µM, the TGI [1] was 1.5 µM and the GI50 [2] was 7.42 µM. For the same compound, the TGI [2] was 16.5 µM, the GI50 [3] was 8.47 µM and the TGI [3] was greater than 33.2 µM. For the same compound, the GI50 [4] was 0.625 µM, the TGI [4] was 1.6 µM and the GI50 [5] was 0.927 µM. It also gave a TGI [5] of 3.03 µM, a GI50 [6] of 0.928 µM and a TGI [6] of 3.12 µM. It also gave a GI50 [7] of 0.93 µM, a TGI [7] of 4.25 µM and a GI50 [8] of 0.554 µM. For the same compound, the TGI [8] was 1.26 µM, the GI50 [9] was 0.968 µM and the TGI [9] was 4.18 µM. For the same compound, the GI50 [10] was 1.31 µM, the TGI [10] was 12.2 µM and the GI50 [11] was 3.3 µM. It also gave a TGI [11] of 8.15 µM, a GI50 [12] of 0.53 µM and a TGI [12] of 1.21 µM. The GI50 [13] was 0.795 µM, the TGI [13] was 3.29 µM and the GI50 [14] was 0.913 µM. The TGI [14] was 2.45 µM, the GI50 [15] was 6.5 µM and the TGI [15] was 24.6 µM. It also gave a GI50 [16] of 1.04 µM, a TGI [16] of 2.99 µM and a GI50 [17] of 8.21 µM. For the same compound, the TGI [17] was greater than 33.2 µM, the GI50 [18] was 0.957 µM and the TGI [18] was 3.29 µM. It also gave a GI50 [19] of 1.95 µM, a TGI [19] of 6.23 µM and a GI50 [20] of 1.15 µM. It also gave a TGI [20] greater than 33.2 µM, a GI50 [21] of 3.84 µM and a TGI [21] of 8.87 µM. The GI50 [22] was 0.601 µM, the TGI [22] was 1.34 µM and the GI50 [23] was 0.79 µM. For the same compound, the TGI [23] was 2.37 µM, the GI50 [24] was 0.666 µM and the TGI [24] was 1.5 µM. The GI50 [25] was 1 µM, the TGI [25] was 5.33 µM and the GI50 [26] was 1.18 µM. For the same compound, the TGI [26] was 4.64 µM, the GI50 [27] was 0.717 µM and the TGI [27] was 1.78 µM. The GI50 [28] was 1.01 µM, the TGI [28] was 3.52 µM and the GI50 [29] was 0.762 µM. It also gave a TGI [29] of 1.99 µM, a GI50 [30] of 1.54 µM and a TGI [30] of 8.32 µM. The GI50 [31] was 5.01 µM, the TGI [31] was greater than 33.2 µM and the GI50 [32] was 0.461 µM. For the same compound, the TGI [32] was 1.04 µM, the GI50 [33] was 1.11 µM and the TGI [33] was greater than 33.2 µM. For the same compound, the GI50 [34] was 0.863 µM, the TGI [34] was 2.92 µM and the GI50 [35] was 1.38 µM. It also gave a TGI [35] of 6.36 µM, a GI50 [36] of 1.03 µM and a TGI [36] of 3.21 µM. It also gave a GI50 [37] of 1.23 µM, a TGI [37] greater than 33.2 µM and a GI50 [38] of 2.01 µM. It also gave a TGI [38] of 7.63 µM, a GI50 [39] of 1.06 µM and a TGI [39] of 3.4 µM. The GI50 [40] was 0.601 µM, the TGI [40] was 1.19 µM and the GI50 [41] was 1.99 µM. For the same compound, the TGI [41] was greater than 16.7 µM, the GI50 [42] was 5.82 µM and the TGI [42] was 18.5 µM. For the same compound, the GI50 [43] was 1.07 µM, the TGI [43] was 4.78 µM and the GI50 [44] was 1.4 µM. It also gave a TGI [44] of 6.02 µM, a GI50 [45] of 0.788 µM and a TGI [45] of 1.96 µM. For the same compound, the GI50 [46] was 3.67 µM, the TGI [46] was 13.6 µM and the GI50 [47] was 10.7 µM. The TGI [47] was greater than 33.2 µM, the GI50 [48] was 1.3 µM and the TGI [48] was 11 µM. It also gave a GI50 [49] of 11.1 µM, a TGI [49] greater than 33.2 µM and a GI50 [50] of 1.15 µM. The TGI [50] was 16.4 µM, the GI50 [51] was 0.734 µM and the TGI [51] was 6.3 µM. It also gave a GI50 [52] of 0.705 µM, a TGI [52] of 1.72 µM and a GI50 [53] of 0.661 µM. It also gave a TGI [53] of 3.8 µM, a GI50 [54] of 0.859 µM and a TGI [54] of 2.06 µM. The GI50 [55] was 1.75 µM, the TGI [55] was 7.16 µM and the GI50 [56] was 0.872 µM. It also gave a TGI [56] of 2.28 µM, a GI50 [57] of 0.675 µM and a TGI [57] of 1.8 µM. It also gave a GI50 [58] of 0.56 µM and a TGI [58] of 1.24 µM.
